Read-outs that look alike come from different tables or passages of the source.
Experiments:
[1] = target: recombinant SARS-CoV-2 Main protease (Mpro) (Severe acute respiratory syndrome coronavirus 2 (2019-nCoV) (SARS-CoV-2), UniProt P0DTD1); test: Cov Mpro Biochemical IC50 Assay
SARS-CoV-2-NLuc = test: microbe, parasite or virus in culture; format: cell-based, SARS Coronavirus 2
[2] = recombinant SARS-CoV-2 Mpro 7.5 nM, fluorogenic peptide substrate 40 μM, read-out: MPro IC50
[3] = Severe acute respiratory syndrome coronavirus, 48 h, read-out: MPro EC50
[4] = recombinant SARS-CoV-2 Mpro, fluorogenic peptide substrate, read-out: MPro IC50
[5] = Severe acute respiratory syndrome coronavirus, 48 h; read-out: MPro EC50

Question: Which IC50 [1, 2] does the source give for `COc1cc(-c2cc3c(s2)c(=O)n(-c2cncc4cnn(C)c24)c(=O)n3CCC#N)c(C#N)cc1F` (single isomer, unassigned) [Example 1004, 2-[1-(2-cyanoethyl)-3-(1-methylpyrazolo[4,3-c]pyridin-7-yl)-2,4-dioxo-thieno[3,2-d]pyrimidin-6-yl]-5-fluoro-4-methoxy-benzonitrile] here?
Answer: 71.5 nM

Question: What about the EC50 (SARS-CoV-2-NLuc; read-out: MPro EC50) of the same compound?
Answer: 112 nM

Question: How did the IC50 [1, 2] turn out when `COc1cc(-c2cc3c(s2)c(=O)n(-c2cncc4nn(CC(F)(F)F)c(C)c24)c(=O)n3CCC#N)c(Cl)cc1F` [Example 918] was run?
Answer: 24.3 nM

Question: And the EC50 (SARS-CoV-2-NLuc; [3])?
Answer: 43.1 nM

Question: Which results are given for `COc1ccc(Cl)c(-c2cc3[nH]c(=O)n(-c4cncc5cc(Cl)ccc45)c(=O)c3s2)c1` [Example 591]?
Answer: IC50 [1, 2]: 12.2 nM; EC50 (SARS-CoV-2-NLuc; [3]): 142 nM

Question: `O=c1[nH]c2cc(-c3cccc4c3CCC4)sc2c(=O)n1-c1cncc2ccccc12` [Example 168, 6-(2,3-dihydro-1H-inden-4-yl)-3-(isoquinolin-4-yl)thieno[3,2-d]pyrimidine-2,4(1H,3H)-dione] was tested. Which IC50 [1, 4] did it give?
Answer: 615 nM

Question: What about the EC50 (SARS-CoV-2-NLuc; [3]) of the same compound?
Answer: 810 nM

Question: With `COc1cnc(C#N)c(-c2cc3[nH]c(=O)n(-c4cncc5cccc(F)c45)c(=O)c3s2)c1` [Example 761] as the compound, how does the IC50 [1, 2] read?
Answer: 45.6 nM

Question: And the EC50 (SARS-CoV-2-NLuc; [5])?
Answer: 398 nM

Question: What does the source list for `Cn1cc2ccc(-n3c(=O)n(-c4cncc5ccccc45)c(=O)c4sc(-c5ccccc5Cl)cc43)cc2n1` [Example 152, 6-(2-chlorophenyl)-3-(isoquinolin-4-yl)-1-(2-methyl-2H-indazol-6-yl)thieno[3,2-d]pyrimidine-2,4(1H,3H)-dione]?
Answer: IC50 [1, 4]: 85.8 nM; EC50 (SARS-CoV-2-NLuc; [3]): 149 nM

Question: For `O=c1[nH]c2cc(-c3ccccc3OCc3ccccc3)sc2c(=O)n1-c1cncc2ccccc12` [Example 18], which IC50 [1, 4] is on record?
Answer: 2930 nM

Question: What about the EC50 (SARS-CoV-2-NLuc; [3]) of the same compound?
Answer: 208 nM

Question: With `COc1cc(-c2cc3[nH]c(=O)n(-c4cncc5ccccc45)c(=O)c3cc2F)c(C#N)cc1F` (single isomer, unassigned) [Example 510, 5-fluoro-2-[6-fluoro-3-(4-isoquinolyl)-2,4-dioxo-1H-quinazolin-7-yl]-4-methoxy-benzonitrile] as the compound, how does the IC50 [1, 2] read?
Answer: 7.05 nM

Question: And the EC50 (SARS-CoV-2-NLuc; read-out: MPro EC50)?
Answer: 16.2 nM

Question: How did the IC50 [1, 2] turn out when `N#Cc1ccc(Cl)cc1-c1cc2[nH]c(=O)n(-c3cncc4ccccc34)c(=O)c2s1` [Example 685] was run?
Answer: 12 nM

Question: What about the EC50 (SARS-CoV-2-NLuc; [3]) of the same compound?
Answer: 69.2 nM

Question: Which IC50 ([1]; MPro IC50, recombinant SARS-CoV-2 Mpro, fluorogenic peptide substrate) does the source give for `COc1ccc(Cl)c(-c2ccc3c(=O)n(-c4cncc5ccccc45)c(=S)[nH]c3c2)c1` [Example 240] here?
Answer: 1660 nM

Question: What about the EC50 (SARS-CoV-2-NLuc; [5]) of the same compound?
Answer: 520 nM

Question: For `Cn1ncc2cncc(-n3c(=O)c4sc(-c5cc(Cl)ccc5Cl)cc4n(CCC#N)c3=O)c21` [Example 793], which IC50 [1, 2] is on record?
Answer: 6.63 nM

Question: And the EC50 (SARS-CoV-2-NLuc; [3])?
Answer: 5.02 nM

Question: Which results are given for `CCS(=O)(=O)c1cccc(-c2cccc(Cl)c2-c2ccc3c(=O)n(-c4cncc5ccccc45)c(=O)[nH]c3c2)c1` [Example 284]?
Answer: IC50 [1, 4]: 25.8 nM; EC50 (SARS-CoV-2-NLuc; [3]): 35.6 nM

Question: `COc1cc(-c2cc3[nH]c(=O)n(-c4cncc5ccccc45)c(=O)c3cc2F)c(Cl)cc1F` (single isomer, unassigned) [Example 1007, 7-(2-chloro-4-fluoro-5-methoxy-phenyl)-6-fluoro-3-(4-isoquinolyl)-1H-quinazoline-2,4-dione] was tested. Which IC50 ([1]; MPro IC50, recombinant SARS-CoV-2 Mpro 7.5 nM, fluorogenic peptide substrate 40 μM) did it give?
Answer: 331 nM

Question: And the EC50 (SARS-CoV-2-NLuc; read-out: MPro EC50)?
Answer: 301 nM

Question: `COCc1ccccc1-c1ccc2c(=O)n(-c3cncc4ccccc34)c(=O)[nH]c2c1` [Example 54] was tested. Which IC50 [1, 4] did it give?
Answer: 741 nM

Question: And the EC50 (SARS-CoV-2-NLuc; [3])?
Answer: 1630 nM

Question: With `COc1ccc(C#N)c(-c2cc3[nH]c(=O)n(-c4cncc5ccc(N6CC(F)(F)OC(F)(F)C6)cc45)c(=O)c3s2)c1` [Example 230] as the compound, how does the IC50 [1, 4] read?
Answer: 23.8 nM

Question: What about the EC50 (SARS-CoV-2-NLuc; [3]) of the same compound?
Answer: 128 nM

Question: With `COc1ccc(Cl)c(-c2ccc3c(=O)n(-c4cncc5ccc(N6CC7(CNC(=O)C7)C6)cc45)c(=O)[nH]c3c2)c1` [Example 411] as the compound, how does the IC50 [1, 2] read?
Answer: 8.93 nM

Question: What about the EC50 (SARS-CoV-2-NLuc; [5]) of the same compound?
Answer: 221 nM

Question: With `O=c1[nH]c2cc(-c3ccccc3Cl)sc2c(=O)n1-c1cncc2ccc(N3CCOCC3)cc12` (single isomer, unassigned) [Example 443, 6-(2-chlorophenyl)-3-(6-morpholinoisoquinolin-4-yl)thieno[3,2-d]pyrimidine-2,4(1H,3H)-dione] as the compound, how does the IC50 [1, 2] read?
Answer: 18.8 nM

Question: What about the EC50 (SARS-CoV-2-NLuc; read-out: MPro EC50) of the same compound?
Answer: 45 nM

Question: For `COc1ccc(C#N)c(-c2cc3[nH]c(=O)n(-c4cncc5ccc(C(F)F)cc45)c(=O)c3s2)c1` [Example 224], which IC50 [1, 4] is on record?
Answer: 10.2 nM

Question: And the EC50 (SARS-CoV-2-NLuc; [3])?
Answer: 124 nM

Reference: patent US20240116946A1 (Gilead Sciences, Inc., priority 2022, published 2024)
